Measurements published in patent US12577213B2 (NINGBO COMBIREG PHARMACEUTICAL TECHNOLOGY CO., LTD., priority 2020, dated 2026).
Like-named read-outs stand apart in the source and are kept apart here.

Legend:
LOX-IMVI (melanoma) = assay: NCI method SRB growth inhibition, LOX-IMVI; assay type: cell-based; details: Homo sapiens, treated 48 hours, SRB stain
Method in brief: (§1)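 SRB absorbance at 515 nm was the read-out, taken after 48 h of compound treatment and compared with plates fixed just before dosing and with vehicle-treated plates. Values are concentrations giving 50% growth inhibition (GI50), total growth inhibition (TGI) or 50% cell kill (LC50).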

[1] = Liver microsomes stability; assay type: in vitro ADME, human; details: for half-life at 1 μM: human, human liver microsomes
Method in brief: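 Compound at 1 μM final incubated with 1 mg/mL human liver microsomes and 1 mM NADPH (no-NADPH control), sampled at 0, 5, 15, 30, 60 min. Remaining parent quantified by LC-MS/MS; T1/2 = 0.693/k.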

OVCAR-3 (ovarian cancer) = assay: NCI method SRB growth inhibition, OVCAR-3; assay type: cell-based; details: Homo sapiens; OVCAR-3, treated 48 hours, SRB stain
Method in brief: as §1

786-0 (renal cancer) = assay: NCI method SRB growth inhibition, 786-0; assay type: cell-based; details: Homo sapiens; 786-0, treated 48 hours, SRB stain
Method in brief: as §1

PC-3 (prostate cancer) = assay: NCI method SRB growth inhibition, PC-3; assay type: cell-based; details: Homo sapiens; PC-3, treated 48 hours, SRB stain
Method in brief: as §1

[2] = test system: A549 (non-small cell lung cancer); assay: NCI method SRB growth inhibition, A549; assay type: cell-based; details: Homo sapiens; A549, treated 48 hours, SRB stain
Method in brief: as §1

K562 (leukemia) = assay: NCI method SRB growth inhibition, K562; assay type: cell-based; details: Homo sapiens; K562, treated 48 hours, SRB stain
Method in brief: as §1

[3] = Metabolic stability in vivo (plasma half-life after IV); details: mouse, plasma, iv; intravenously at 1 mg/kg, male BALB/c nude mice; read-out: T½ of (IV in nude mice) (converted)
Method: The intravenous injection group of the embodiment compound was prepared with the mixed solvent of DMA:PEG400:30% SBECD=5:25:70 to form a 0.2 mg/mL of solution, and administered intravenously at 1 mg/kg of weight; and the oral preparation group was prepared with 0.5% MC to form a 1 mg/mL of solution, and administered by oral gavage at 10 mg/kg weight.
• Male BALB/c nude mice, 4-5 weeks old, purchased from Shanghai SLAC. 3. Experiment Method: 3.1 Instruments: • Liquid chromatography system: Shimadzu liquid chromatography system Shimadzu LC-30AD • MS/MS system: Applied Biosystems API5500 • Data collection: Analyst Software 1.5.2 3.2 Chromatographic Conditions Chromatographic Column • Analytical column: Kinetex 2.6u C18 100 A column (3.0 mm×30 mm) • Mobile phase: A: 10 mM NH4OAc (0.1% FA); B: Acetonitrile with 0.1% […] • Flow rate: 1.0 mL/min
Ion source was an electron spray ionization (ESI source) with negative ion detection; spray voltage source was 5500 V; ion source gas 1 (N2) was 50 psi; ion source gas 2 (N2) was 50 psi; air curtain gas (N2) was 30 psi. Scanning mode was multiple reaction monitoring (MRM); scanning time was 80 ms; collision gas pressure was 10 psi;
Grouping experiment, with three animals in each group, starting from now on, administration was started according to the weight of the animals. Blood was collected according to 5 min, 15 min, 30 min, 1 h, 2 h, 4 h, 8 h and 24 h after administration.
To 25.0 μL of plasma, 25.0 μL of internal standard solution (Tolbutamide (250 ng/mL) in acetonitrile), 25.0 μL of acetonitrile and 100 μL of acetonitrile were added, and the mixture was vortexed for 1 min, and centrifuged for 5 min (14000 rpm). 120 μL of the resulting supernatant was added with 80.0 μL of water (containing 1% formic acid) and mixed well, then analyzed by LC/MS/MS.

HS 578T (breast cancer) = assay: NCI method SRB growth inhibition, HS 578T; assay type: cell-based; details: Homo sapiens, HS578T, treated 48 hours, SRB stain
Method in brief: as §1

HCT116 (colon cancer) = assay: NCI method SRB growth inhibition, HCT116; assay type: cell-based; details: Homo sapiens, HCT-116; HCT116, treated 48 hours, SRB stain
Method in brief: as §1

[4] = test system: SF295 (central nervous system tumor); assay: NCI method SRB growth inhibition, SF295; assay type: cell-based; details: Homo sapiens, SF-295; SF295, treated 48 hours, SRB stain
Method in brief: as §1

[5] = 1 μM compound, 1 mg/mL human liver microsomes, 1 mM NADPH
[6] = 1 μM compound, 1 mg/mL human liver microsomes, 1 mM NADPH, read-out: T½ of HLM
[7] = as repeated in Table 4, read-out: T½ of HLM (in vitro)

Row | microsomal CLint at 1 μM [1, 5] [µL/min/mg] | half-life at 1 μM [1, 6] [min] | half-life at 1 μM [1, 7] [min] | half-life [3] [min] | Structure (SMILES) | GI50 (LOX-IMVI (melanoma)) [nM] | GI50 (OVCAR-3 (ovarian cancer)) [nM] | GI50 (786-0 (renal cancer)) [nM] | GI50 (PC-3 (prostate cancer)) [nM] | GI50 [2] [nM] | GI50 (K562 (leukemia)) [nM] | GI50 (HS 578T (breast cancer)) [nM] | GI50 (HCT116 (colon cancer)) [nM] | GI50 [4] [nM]
1 | 9.5 | 73 | 73 | 78.6 | [2H]C([2H])([2H])Oc1cc(C(=O)Nc2cc3c(cc2Oc2cc(C)cc(C)c2)C(=O)N[C@@H](CC(=O)N(C([2H])([2H])C([2H])([2H])[2H])C([2H])([2H])C([2H])([2H])[2H])C(=O)N3)c(Cl)c(OC([2H])([2H])[2H])c1OC([2H])([2H])[2H] [Compound 6, (S)-2-chloro-N-[3-[2-[bis(pentadeuteroethyl)amino]-2-oxoethyl]-7-(3,5-dimethylphenoxy)-2,5-dioxo-2,3,4,5-tetrahydro-1H-benzo[e][1,4]diazepin-8-yl]-3,4,5-tris(trideuteromethoxy)benzamide] | < 5 | 11.9 | 16.9 | 10.3 | 11.7 | < 5 | 20.5 | < 5 | 13.1
2 | 13.7 | 50.6 | 50.6 | 38 | [2H]C([2H])([2H])C([2H])([2H])N(C(=O)C[C@@H]1NC(=O)c2cc(Oc3cc(C)cc(C)c3)c(NC(=O)c3cc(OC)c(OC)c(OC)c3Cl)cc2NC1=O)C([2H])([2H])C([2H])([2H])[2H] [Compound 8, (S)-2-chloro-N-[3-[2-[bis(pentadeuteroethyl)amino]-2-oxoethyl]-7-(3,5-dimethylphenoxy)-2,5-dioxo-2,3,4,5-tetrahydro-1H-benzo[e][1,4]diazepin-8-yl]-3,4,5-trimethoxybenzamide] | < 5 | 5 | 13.9 | 9.7 | 15.3 | < 5 | 13.3 | < 5 | 10.3
3 | 30.7 | 22.6 | 22.6 | 34 | [2H]C([2H])([2H])C([2H])([2H])N(C(=O)C[C@H]1C(=O)Nc2cc(NC(=O)c3cc(OC)c(OC)c(OC)c3Cl)c(Oc3cc(C)cc(C)c3)cc2C(=O)N1C)C([2H])([2H])C([2H])([2H])[2H] [Compound 12, (S)-2-chloro-N-[3-[2-[bis(pentadeuteroethyl)amino]-2-oxoethyl]-7-(3,5-dimethylphenoxy)-4-methyl-2,5-dioxo-2,3,4,5-tetrahydro-1H-benzo[e][1,4]diazepin-8-yl]-3,4,5-trimethoxybenzamide] | < 5 | 12.6 | 9.9 | 5.4 | < 5 | < 5 | 13.3 | < 5 | 10.8
